Laboratory results as given in patent US6592890B1, “Conveyance of anti-infective activity to wound dressings” (OxiBio, Inc., priority 1999, dated 2003).

System: C. albicans

For II [elemental iodine], the “elemental iodine concentrations required to affect microbial killing” value was < 0.01%.
